Results reported in ChEMBL document CHEMBL5532694, “PDE-stable 2'3'-cGAMP analogues, containing 5'-S-phosphorothioester linkage, as STING agonists” (RSC Med Chem, 2024).

Tests used:
[1] = target: T1, Stimulator of interferon genes protein (Homo sapiens, UniProt Q86WV6); assay: Agonist activity at STING in wildtype human THP1-Dual cells assessed as IRF activation incubated for 24 hrs by QUANTI-Luc reagent based luminescence assay; format: cell-based
[2] = target: T1, Stimulator of interferon genes protein; assay: Agonist activity at STING in human THP1-Dual KI-hSTING-R232 cells assessed as IRF activation incubated for 24 hrs by QUANTI-Luc reagent based luminescence assay; format: cell-based
[3] = target: T1, Stimulator of interferon genes protein; assay: Displacement of 2'-Fluo-AHC-c-di-GMP from wildtype human STING expressed in Escherichia coli BL21 (DE3) incubated for 5 mins by fluorescence polarization assay
[4] = target: T2, Ectonucleotide pyrophosphatase/phosphodiesterase family member 1 (Homo sapiens, UniProt P22413); assay: Stability of compound assessed as ENPP1 (unknown origin) mediated compound degradation at 300 uM measured upto 24 hrs by HPLC analysis; format: ADME
T2 sequence (P22413 whole entry): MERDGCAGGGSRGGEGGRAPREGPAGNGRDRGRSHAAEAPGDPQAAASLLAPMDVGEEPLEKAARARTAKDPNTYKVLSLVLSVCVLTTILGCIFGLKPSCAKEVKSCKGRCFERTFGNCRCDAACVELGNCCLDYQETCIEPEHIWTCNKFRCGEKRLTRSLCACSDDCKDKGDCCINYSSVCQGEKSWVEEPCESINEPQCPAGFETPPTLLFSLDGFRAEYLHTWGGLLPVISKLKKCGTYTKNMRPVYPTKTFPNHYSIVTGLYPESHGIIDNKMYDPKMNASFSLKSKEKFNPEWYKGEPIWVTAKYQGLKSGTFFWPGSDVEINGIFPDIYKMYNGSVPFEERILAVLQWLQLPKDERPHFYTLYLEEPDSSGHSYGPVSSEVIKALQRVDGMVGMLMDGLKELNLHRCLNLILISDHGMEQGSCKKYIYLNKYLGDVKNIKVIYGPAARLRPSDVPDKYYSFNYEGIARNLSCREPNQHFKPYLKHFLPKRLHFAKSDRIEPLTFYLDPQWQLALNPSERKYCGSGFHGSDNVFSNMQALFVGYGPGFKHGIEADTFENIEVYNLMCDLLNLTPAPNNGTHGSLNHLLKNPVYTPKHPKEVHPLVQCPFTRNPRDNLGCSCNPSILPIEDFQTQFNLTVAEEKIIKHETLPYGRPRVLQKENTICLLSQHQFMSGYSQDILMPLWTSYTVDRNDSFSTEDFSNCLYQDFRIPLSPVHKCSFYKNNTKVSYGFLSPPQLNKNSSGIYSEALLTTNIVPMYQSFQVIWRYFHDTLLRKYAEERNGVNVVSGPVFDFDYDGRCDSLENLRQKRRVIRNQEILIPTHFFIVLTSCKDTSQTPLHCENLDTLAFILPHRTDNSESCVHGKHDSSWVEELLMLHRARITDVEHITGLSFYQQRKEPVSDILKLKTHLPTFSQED

[5] = Stability of compound assessed as Poxin (unknown origin) mediated compound degradation at 300 uM and measured after 3 hrs by HPLC analysis; format: ADME
[6] = Stability of compound at 95 degreeC incubated for 5 mins by HPLC analysis; format: physicochemical
[7] = target: T1, Stimulator of interferon genes protein
Description: Binding affinity to wildtype human STING expressed in Escherichia coli BL21 (DE3) assessed as thermal stability by measuring increase in melting temperature by differential scanning fluorimetry analysis

[8] = Stability of compound assessed as Poxin (unknown origin) mediated compound degradation at 300 uM and measured after 30 mins by HPLC analysis; format: ADME; details: 0.5 h
[9] = Stability of compound assessed as Poxin (unknown origin) mediated compound degradation at 300 uM and measured after 24 hrs by HPLC analysis; format: ADME

T1 sequence (Q86WV6 whole entry): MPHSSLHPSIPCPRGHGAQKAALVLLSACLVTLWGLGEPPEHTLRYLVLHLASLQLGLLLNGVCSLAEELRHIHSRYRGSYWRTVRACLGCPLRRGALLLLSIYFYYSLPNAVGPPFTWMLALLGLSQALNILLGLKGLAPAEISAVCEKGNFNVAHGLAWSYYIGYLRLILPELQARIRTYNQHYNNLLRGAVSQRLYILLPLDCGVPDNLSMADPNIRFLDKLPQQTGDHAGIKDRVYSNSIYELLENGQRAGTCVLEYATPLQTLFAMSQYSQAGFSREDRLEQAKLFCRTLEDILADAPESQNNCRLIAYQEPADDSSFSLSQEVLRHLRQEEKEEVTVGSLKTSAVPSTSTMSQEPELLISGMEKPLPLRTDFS

EC50 [1] [µM] | EC50 [2] [µM] | IC50 [3] [µM] | Stability [4] | Stability [5] | Stability [6] | ΔTm [7] [°C] | Stability [9] | SMILES | Stability [8]
27.2 | 27.4 | 18.6 | Stable | Unstable | Stable | 8.2 | – | CCN(CC)CC.CCN(CC)CC.Nc1nc2c(ncn2[C@@H]2O[C@@H]3COP(=O)(O)O[C@H]4[C@@H](O)[C@H](n5cnc6c(N)ncnc65)O[C@@H]4CSP(=O)(O)O[C@@H]2[C@@H]3O)c(=O)[nH]1 | –
– | – | – | Stable | – | Stable | – | Stable | CCN(CC)CC.CCN(CC)CC.Nc1nc2c(ncn2[C@@H]2O[C@@H]3COP(=O)(O)O[C@H]4[C@@H](F)[C@H](n5cnc6c(N)ncnc65)O[C@@H]4CSP(=O)(O)O[C@@H]2[C@@H]3O)c(=O)[nH]1 | –
37 | 16.4 | 7.87 | – | – | – | – | – | Nc1nc2c(ncn2[C@@H]2O[C@@H]3COP(=O)(O)O[C@H]4C[C@H](n5cnc6c(N)ncnc65)O[C@@H]4CSP(=O)(O)O[C@@H]2[C@@H]3O)c(=O)[nH]1 | –

SMILES | EC50 [1] [µM] | EC50 [2] [µM] | IC50 [3] [µM] | Stability [4] | Stability [5] | Stability [6] | ΔTm [7] [°C] | Stability [9] | Stability [8]
Nc1nc2c(ncn2[C@@H]2O[C@@H]3COP(=O)(O)O[C@H]4[C@@H](O)[C@H](n5cnc6c(N)ncnc65)O[C@@H]4COP(=O)(O)O[C@@H]2[C@@H]3O)c(=O)[nH]1 | – | – | – | Unstable | – | Stable | – | – | Unstable
